Measured values as given in patent US9566312B2, “Cyclic peptides and use as medicines” (priority 2012, dated 2017).
Starred links: 1 amine or outer side, 2 acyl side, 3 side chain; linkers in the order of their positions; H or OH if unused. Non-standard residues stand in square brackets, D forms with d. Residues, ends and D or L forms follow the SMILES beside them. X75 = C[C@H](CCC(C)(C)OC(=O)N1CCN(C)CC1)[C@@H](C(=O)[*:2])N(C)[*:1]; X44 = CC(C)N1CCN(C(=O)COC[C@@H](C)[C@@H](C(=O)[*:2])N(C)[*:1])CC1; X70 = C[C@H](CCCOC(=O)N1CCN(C)CC1)[C@@H](C(=O)[*:2])N(C)[*:1]; X33 = CC(C)N1CCOC(COC[C@@H](C)[C@@H](C(=O)[*:2])N(C)[*:1])C1; X72 = C[C@H](CCN1CCN(C2CCC2)CC1)[C@@H](C(=O)[*:2])N(C)[*:1]; X82 = C[C@H](COCCN1CCOC[C@@H]1C)[C@@H](C(=O)[*:2])N(C)[*:1]; X36 = C[C@H](COCCN(C)CC(F)(F)F)[C@@H](C(=O)[*:2])N(C)[*:1]; X51 = C[C@H](CN1CCC2(COC2)C1)[C@@H](C(=O)[*:2])N(C)[*:1]; X50 = C[C@H](CN1CCNC(=O)C1)[C@@H](C(=O)[*:2])N(C)[*:1]; MeBmt = C/C=C/C[C@@H](C)[C@@H](O)[C@H](NC)C(=O)O; NMeL = CN[C@@H](CC(C)C)C(=O)O; NMeV = CN[C@H](C(=O)O)C(C)C; dNMeA = CN[C@H](C)C(=O)O; Abu = CC[C@H](N)C(=O)O

Experiments:
cyclophilin A (CypA) = cyclophilin A (CypA) (Homo sapiens (Human), UniProt P62937); assay: Inhibitor binding to cyclophilin proteins by SPR, CypA; design: unit not given here; settings: 1:1 binding model
[1] = tested on: genotype 1b subgenomic HCV replicon in Huh7.5 cells; format: cell-based, hepatitis C virus; settings: genotype 1b replicon, 72 h incubation; read-out: RPLN-1b IC50
Procedure: Method 2: Measuring Inhibitory Effects in a HCV Replicon System
Susceptibility to compounds was analyzed in Huh7.5 cells containing genotype 1a or 1b subgenomic HCV replicons co-expressing a luciferase reporter gene. The original replicons, pFK389lucubineo_3_3′_ET and pH/SG-Neo(L+I), were licensed from ReBlicon GmbH (Germany) and Apath LLC (Saint Louis, Mo.), respectively. The firefly reporter gen was replaced by renilla luciferase reporter gene using standard molecular biology techniques as follows.
Generation of genotype 1b subgenomic replicon: The renilla […]-neomycin phosphotransferase cassette was amplified from pF9 cytomegalovirus (CMV) hRluc-Neo Flexi(R) (Promega) by PCR using Accuprime super mix II (Invitrogen) and a primer set of Ascl hRlucNeo Fwd and NotI hRluc Rev. These two primers have the following sequences and introduce restriction sites for subsequent cloning: Ascl hRlucNeo Fwd, 5 […] 3(Ascl site underlined) (SEQ. ID No. 1), and NotI hRluc Rev, 5[…] 3(NotI site underlined) (SEQ ID No. 2). The amplification product was subcloned into pCR2.1-TOPO (Invitrogen). The resulting plasmid was digested with Ascl and NotI, and the excised fragment (hRluc-Neo) was ligated with the Roche Quick Ligation Kit (Roche) into pFK1389lucubineo_3_3′_ET digested with the same enzymes.
The assay medium for both, luciferase reporter HCV replicon and cytotoxicity assays contains phenol red-free DMEM and lacks G418. […] Luciferase activity of compound treated cells is measured relative to DMSO treated cells after 72 h incubation using Renilla-Glo™ Luciferase Assay (Promega). Cytotoxicity (CC50) is analyzed using Cell Titer-Glo™ (Promega).

[2] = molecular target: organic anion transporting polypeptide 1B1 (OATP1B1) (Homo sapiens (Human), UniProt Q9Y6L6); assay: OATP assay in CHO-OATP1B1 cells;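 also: inhibition of probe substrate uptake into the cells, ten minutes exposure, accumulated substrate read by fluorescence once cells were lysed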
CypF = CypF (Homo sapiens (Human), UniProt P30405); assay: Inhibitor binding to cyclophilin proteins by SPR, CypF; settings: 1:1 binding model
Procedure: (§1) Method 1: Measuring Inhibitor Binding to Cyclophilin Proteins
(§2) Binding of inhibitors to expressed cyclophilins was determined using surface plasmon resonance (SPR) experiments. Briefly, avi-tagged cyclophilin proteins with mono-biotinylation were immobilized onto a Biotin CAPture chip (GE Healthcare, cat. #28920234). SPR experiments were carried out on an upgraded Biacore T200 system using a running buffer containing the inhibitor, 10 mM HEPES, pH 7.4, 150 mM NaCl, 0.05% P20, and 3% DMSO. Single-cycle kinetics measurements were used to study the interactions between cyclophilin inhibitors and different cyclophlins. Accordingly, compound at various concentrations was injected to the flow cells with a contact time of 1 min each at a flow rate of 50 μL/min. The final dissociation phase lasts for 10 min following the sample injection. Data was analyzed using Biacore T200 Evaluation Software Version 1.0 and a 1:1 binding model was applied to fit the data to obtain kon, koff, and KD.

cyclophilin B (CypB) = cyclophilin B (CypB) (Homo sapiens (Human), UniProt P23284); assay: Inhibitor binding to cyclophilin proteins by SPR, CypB; design: unit not given here; settings: 1:1 binding model
Procedure: as §1, §2

[3] = tested on: peripheral blood mononuclear cells (PBMC); assay: Anti-proliferative or immunosuppressive activity, BrdU incorporation in PHA-stimulated PBMC; format: cell-based; settings: PHA 3 μg/ml, 60 hour compound treatment; read-out: EMV PBMC IC50
Procedure: Method 3: Measuring Anti-Proliferative or Immunosuppressive Activity
The potential anti-proliferative activity of compounds on T-cells was analyzed based on the amount of bromodesoxy uridine (BrdU) incorporated into DNA of fresh peripheral blood mononuclear cells (PBMC) using the BrdU ELISA kit (Roche). The assay is performed in 96-well plate format with 30,000 PBMCs seeded per well in X-VIVO 15 medium (Lonza). T-cell proliferation was stimulated by addition of 3 μg/ml phytohemagglutinin (PHA) in PBMCs obtained from two donors.

CypF, sequence (P30405 30-207): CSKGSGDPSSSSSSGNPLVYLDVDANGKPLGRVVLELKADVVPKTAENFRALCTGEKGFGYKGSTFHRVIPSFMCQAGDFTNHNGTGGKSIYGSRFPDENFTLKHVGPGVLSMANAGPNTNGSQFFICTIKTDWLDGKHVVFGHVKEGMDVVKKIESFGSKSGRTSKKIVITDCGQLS
cyclophilin A (CypA), sequence (P62937 whole entry): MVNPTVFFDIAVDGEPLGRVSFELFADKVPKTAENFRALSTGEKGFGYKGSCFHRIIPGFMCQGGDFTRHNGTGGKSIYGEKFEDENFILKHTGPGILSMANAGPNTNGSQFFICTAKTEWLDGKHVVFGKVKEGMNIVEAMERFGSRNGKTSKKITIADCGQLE
cyclophilin B (CypB), sequence (P23284 34-216): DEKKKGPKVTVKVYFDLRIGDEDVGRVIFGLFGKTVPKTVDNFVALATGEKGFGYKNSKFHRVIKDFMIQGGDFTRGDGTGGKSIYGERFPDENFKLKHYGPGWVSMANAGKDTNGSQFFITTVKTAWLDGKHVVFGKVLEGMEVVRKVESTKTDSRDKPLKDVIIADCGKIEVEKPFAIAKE
organic anion transporting polypeptide 1B1 (OATP1B1), sequence (Q9Y6L6 whole entry): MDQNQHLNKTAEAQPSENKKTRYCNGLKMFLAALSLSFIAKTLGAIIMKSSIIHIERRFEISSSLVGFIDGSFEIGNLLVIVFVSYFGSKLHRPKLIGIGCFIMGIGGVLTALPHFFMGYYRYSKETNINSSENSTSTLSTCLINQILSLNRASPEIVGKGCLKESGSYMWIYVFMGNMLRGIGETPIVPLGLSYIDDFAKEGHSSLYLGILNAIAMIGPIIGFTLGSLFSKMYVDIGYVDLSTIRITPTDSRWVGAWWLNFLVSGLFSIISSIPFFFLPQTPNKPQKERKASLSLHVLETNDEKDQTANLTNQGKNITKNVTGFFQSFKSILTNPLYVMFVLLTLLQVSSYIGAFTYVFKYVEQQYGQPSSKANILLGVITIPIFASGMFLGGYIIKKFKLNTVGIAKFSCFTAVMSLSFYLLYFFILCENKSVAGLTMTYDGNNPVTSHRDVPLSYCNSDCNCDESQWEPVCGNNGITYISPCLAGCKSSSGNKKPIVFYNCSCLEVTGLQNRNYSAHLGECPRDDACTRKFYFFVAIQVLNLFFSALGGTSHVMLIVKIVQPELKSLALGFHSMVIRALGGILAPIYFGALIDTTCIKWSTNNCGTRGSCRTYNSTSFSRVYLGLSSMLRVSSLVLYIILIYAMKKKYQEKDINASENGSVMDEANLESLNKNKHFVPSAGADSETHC

| SMILES | CypA Kd (cyclophilin A (CypA)) | IC50 [1] [nM] | IC50 [2] [nM] | CypF Kd (CypF) [nM] | CypB Kd (cyclophilin B (CypB)) | IC50 [3] [nM] |
| --- | --- | --- | --- | --- | --- | --- |
| C/C=C/C[C@@H](C)[C@@H](O)[C@H]1C(=O)N[C@@H](CC)C(=O)N(C)[C@H](C)C(=O)N(C)[C@@H]([C@H](C)CN2CCNC(=O)C2)C(=O)N[C@@H](C(C)C)C(=O)N(C)[C@@H](CC(C)C)C(=O)N[C@@H](C)C(=O)N[C@H](C)C(=O)N(C)[C@@H](CC(C)C)C(=O)N(C)[C@@H](CC(C)C)C(=O)N(C)[C@@H](C(C)C)C(=O)N1C [Compound 2.5.30, 3-[D-Ala]-4-[(2S,3R)-3-methyl-2-(methylamino)-4-(3-oxopiperazin-1-yl)butanoyl]-cyclosporin] (cyclo(A[dA][NMeL][NMeL][NMeV][MeBmt][Abu][dNMeA][X50]V[NMeL])) | 1.7 | 204 | 2100 | 1.1 | 1.0 | 34100 |
| C/C=C/C[C@@H](C)[C@@H](O)[C@H]1C(=O)N[C@@H](CC)C(=O)N(C)[C@H](C)C(=O)N(C)[C@@H]([C@H](C)CN2CCC3(COC3)C2)C(=O)N[C@@H](C(C)C)C(=O)N(C)[C@@H](CC(C)C)C(=O)N[C@@H](C)C(=O)N[C@H](C)C(=O)N(C)[C@@H](CC(C)C)C(=O)N(C)[C@@H](CC(C)C)C(=O)N(C)[C@@H](C(C)C)C(=O)N1C [Compound 2.5.33, 3-[D-Ala]-4-[(2S,3R)-3-methyl-2-(methylamino)-4-(2-oxa-6-azaspiro[3.4]octan-6-yl)butanoyl]-cyclosporin] (cyclo(A[dA][NMeL][NMeL][NMeV][MeBmt][Abu][dNMeA][X51]V[NMeL])) | 1.1 | 46 | 2000 | 0.8 | 0.8 | 10300 |
| C/C=C/C[C@@H](C)[C@@H](O)[C@H]1C(=O)N[C@@H](CC)C(=O)N(C)[C@H](C)C(=O)N(C)[C@@H]([C@H](C)CCCOC(=O)N2CCN(C)CC2)C(=O)N[C@@H](C(C)C)C(=O)N(C)[C@@H](CC(C)C)C(=O)N[C@@H](C)C(=O)N[C@H](C)C(=O)N(C)[C@@H](CC(C)C)C(=O)N(C)[C@@H](CC(C)C)C(=O)N(C)[C@@H](C(C)C)C(=O)N1C [Compound 2.19.7, 3-[D-Ala]-4-[(2S,3R)-3-methyl-2-(methylamino)-6-((4-methylpiperazine-1-carbonyl)oxy)hexanoyl]-cyclosporin] (cyclo(A[dA][NMeL][NMeL][NMeV][MeBmt][Abu][dNMeA][X70]V[NMeL])) | 1.1 | 11 | 2900 | 0.7 | 0.7 | 15900 |
| C/C=C/C[C@@H](C)[C@@H](O)[C@H]1C(=O)N[C@@H](CC)C(=O)N(C)[C@H](C)C(=O)N(C)[C@@H]([C@H](C)CCN2CCN(C3CCC3)CC2)C(=O)N[C@@H](C(C)C)C(=O)N(C)[C@@H](CC(C)C)C(=O)N[C@@H](C)C(=O)N[C@H](C)C(=O)N(C)[C@@H](CC(C)C)C(=O)N(C)[C@@H](CC(C)C)C(=O)N(C)[C@@H](C(C)C)C(=O)N1C [Compound 2.18.10, 3-[D-Ala]-4-[(2S,3R)-5-(4-cyclobutylpiperazin-1-yl)-3-methyl-2-(methylamino)pentanoyl]-cyclosporin] (cyclo(A[dA][NMeL][NMeL][NMeV][MeBmt][Abu][dNMeA][X72]V[NMeL])) | 1.5 | 96 | 2100 | 0.7 | 1.1 | 1600 |
| C/C=C/C[C@@H](C)[C@@H](O)[C@H]1C(=O)N[C@@H](CC)C(=O)N(C)[C@H](C)C(=O)N(C)[C@@H]([C@H](C)COCC2CN(C(C)C)CCO2)C(=O)N[C@@H](C(C)C)C(=O)N(C)[C@@H](CC(C)C)C(=O)N[C@@H](C)C(=O)N[C@H](C)C(=O)N(C)[C@@H](CC(C)C)C(=O)N(C)[C@@H](CC(C)C)C(=O)N(C)[C@@H](C(C)C)C(=O)N1C (stereo partly drawn) [Compound 2.20.2, 3-[D-Ala]-4-[(2S,3S)-4-(((S)-4-isopropylmorpholin-2-yl)methoxy)-3-methyl-2-(methylamino)butanoyl]-cyclosporin] (cyclo(A[dA][NMeL][NMeL][NMeV][MeBmt][Abu][dNMeA][X33]V[NMeL])) | 0.6 | 44 | 4300 | 0.3 | 0.5 | 6400 |
| C/C=C/C[C@@H](C)[C@@H](O)[C@H]1C(=O)N[C@@H](CC)C(=O)N(C)[C@H](C)C(=O)N(C)[C@@H]([C@H](C)COCCN2CCOC[C@@H]2C)C(=O)N[C@@H](C(C)C)C(=O)N(C)[C@@H](CC(C)C)C(=O)N[C@@H](C)C(=O)N[C@H](C)C(=O)N(C)[C@@H](CC(C)C)C(=O)N(C)[C@@H](CC(C)C)C(=O)N(C)[C@@H](C(C)C)C(=O)N1C [Compound 2.8.6, 3-[D-Ala]-4-[(2S,3S)-3-methyl-2-(methylamino)-4-(2-((S)-3-methylmorpholino)ethoxy)butanoyl]-cyclosporin] (cyclo(A[dA][NMeL][NMeL][NMeV][MeBmt][Abu][dNMeA][X82]V[NMeL])) | 1.3 | 13 | 4800 | 0.8 | 0.9 |  |
| C/C=C/C[C@@H](C)[C@@H](O)[C@H]1C(=O)N[C@@H](CC)C(=O)N(C)[C@H](C)C(=O)N(C)[C@@H]([C@H](C)CCC(C)(C)OC(=O)N2CCN(C)CC2)C(=O)N[C@@H](C(C)C)C(=O)N(C)[C@@H](CC(C)C)C(=O)N[C@@H](C)C(=O)N[C@H](C)C(=O)N(C)[C@@H](CC(C)C)C(=O)N(C)[C@@H](CC(C)C)C(=O)N(C)[C@@H](C(C)C)C(=O)N1C [Compound 2.12.2, 3-[D-Ala]-4-[(2S,3R)-3,6-dimethyl-2-(methylamino)-6-((4-methylpiperazine-1-carbonyl)oxy)heptanoyl]-cyclosporin] (cyclo(A[dA][NMeL][NMeL][NMeV][MeBmt][Abu][dNMeA][X75]V[NMeL])) | 22 | 180 | 4700 | 10 | 6.8 | 11600 |
| C/C=C/C[C@@H](C)[C@@H](O)[C@H]1C(=O)N[C@@H](CC)C(=O)N(C)[C@H](C)C(=O)N(C)[C@@H]([C@H](C)COCCN(C)CC(F)(F)F)C(=O)N[C@@H](C(C)C)C(=O)N(C)[C@@H](CC(C)C)C(=O)N[C@@H](C)C(=O)N[C@H](C)C(=O)N(C)[C@@H](CC(C)C)C(=O)N(C)[C@@H](CC(C)C)C(=O)N(C)[C@@H](C(C)C)C(=O)N1C [Compound 2.8.3, 3-[D-Ala]-4-[(2S,3S)-3-methyl-4-(2-(methyl(2,2,2-trifluoroethyl)amino)ethoxy)-2-(methylamino)butanoyl]-cyclosporin] (cyclo(A[dA][NMeL][NMeL][NMeV][MeBmt][Abu][dNMeA][X36]V[NMeL])) | 4.4 |  | 1900 | 4.1 | 3.3 |  |
| C/C=C/C[C@@H](C)[C@@H](O)[C@H]1C(=O)N[C@@H](CC)C(=O)N(C)[C@H](C)C(=O)N(C)[C@@H]([C@H](C)COCC(=O)N2CCN(C(C)C)CC2)C(=O)N[C@@H](C(C)C)C(=O)N(C)[C@@H](CC(C)C)C(=O)N[C@@H](C)C(=O)N[C@H](C)C(=O)N(C)[C@@H](CC(C)C)C(=O)N(C)[C@@H](CC(C)C)C(=O)N(C)[C@@H](C(C)C)C(=O)N1C [Compound 2.6.4, 3-[D-Ala]-4-[(2S,3S)-4-(2-(4-isopropylpiperazin-1-yl)-2-oxoethoxy)-3-methyl-2-(methylamino)butanoyl]-cyclosporin] (cyclo(A[dA][NMeL][NMeL][NMeV][MeBmt][Abu][dNMeA][X44]V[NMeL])) | 1.4 |  | 8000 | 0.6 | 1.1 |  |
